Where a name gives a salt, the structure may show the parent alone. Read-outs that look alike come from different tables or passages of the source.
Tests used:
[1] = test system: 5-HTP (5-hydroxytryptophan); test: 5-HTP (5-hydroxytryptophan) potentiation test (Christensen et al.): head movements and tremors; assay type: in vivo, mice; settings: for activity in the 5-HTP potentiation test: in words; for ED50: Mus musculus, 0.25 h
Procedure: The mice receive an intravenous injection of 5-HTP (100 mg/10 ml/kg) after oral administration of the compounds to be studied (25 ml/kg). Fifteen minutes after the injection of 5-HTP, the presence and intensity of head movements and tremors are noted.

nociceptive reactions = test: Heating-plate test, analgesic activity (WOOLFE and MacDONALD); assay type: in vivo; settings: mouse, oral, 100 mg/kg; 30 min; plate 65° C.
Procedure: The products to be tested are administered to the mouse orally. 30 minutes later, the mice are placed on a plate brought to 65° C. The nociceptive reactions are assessed objectively in terms of the licking of the forepaws. The time for this response to appear is noted.
The method of calculation used is that described by HARRIS L. S. and PIERSON A. K. (1964, J. Pharmacol. Exp. Ther., 143, 141-148).

physchem = settings: water
[2] = mice, oral, 5-HTP i.v. 100 mg/10 ml/kg, observed 15 min after 5-HTP, read-out: ED50

2-[(3-Phenylpropyloxy)methyl]morpholine hydrogen oxalate [Example 16]
activity in the 5-HTP potentiation test ([1]; mice, oral): activity

CCC(=O)O[C@](Cc1ccccc1)(c1ccccc1)[C@H](C)CN(C)C [Dextropropoxyphene, reference compound]
PERCENTAGE ANALGESIA (nociceptive reactions): 15%

c1ccc(COCC2CNCCO2)cc1 (stereo not drawn) [Example 1, 2-(benzyloxymethyl)morpholine hydrogen maleate]
solubility (Solubility in water): 100 mg/mL

COc1ccccc1COCC1CNCCO1 (stereo not drawn) [Example 2, 2-[(2-Methoxybenzyloxy)methyl]morpholine hydrogen fumarate]
solubility (Solubility in water): 50 mg/mL

COc1cccc(COCC2CNCCO2)c1 (stereo not drawn) [Example 3, 2-[(3-Methoxybenzyloxy)methyl]morpholine hydrogen maleate]
ED50 [1, 2]: 10 mg/kg | activity in the 5-HTP potentiation test ([1]; mice, oral): activity | solubility (Solubility in water): 10 mg/mL

COc1ccc(COCC2CNCCO2)cc1 (stereo not drawn) [Example 4, 2-[(4-methoxybenzyloxy)methyl]morpholine hydrogen oxalate]
solubility (Solubility in water): 40 mg/mL

Cc1ccccc1COCC1CNCCO1 (stereo not drawn) [Example 5, 2-[(2-Methylbenzyloxy)methyl]morpholine hydrogen maleate]
ED50 [1, 2]: 16 mg/kg | activity in the 5-HTP potentiation test ([1]; mice, oral): activity | PERCENTAGE ANALGESIA (nociceptive reactions): 20%

Cc1cccc(COCC2CNCCO2)c1 (stereo not drawn) [Example 6, 2-[(3-Methylbenzyloxy)methyl]morpholine hydrogen maleate]
solubility (Solubility in water): 30 mg/mL

Cc1ccc(COCC2CNCCO2)cc1 (stereo not drawn) [Example 7, 2-[(4-Methylbenzyloxy)methyl]morpholine hydrogen oxalate]
solubility (Solubility in water): 20 mg/mL

Clc1ccccc1COCC1CNCCO1 (stereo not drawn) [Example 8, 2-[(2-Chlorobenzyloxy)methyl]morpholine hydrogen maleate]
ED50 [1, 2]: 15 mg/kg | activity in the 5-HTP potentiation test ([1]; mice, oral): activity | solubility (Solubility in water): 20 mg/mL

Clc1cccc(COCC2CNCCO2)c1 (stereo not drawn) [Example 9, 2-[(3-Chlorobenzyloxy)methyl]morpholine hydrogen maleate]
ED50 [1, 2]: 15 mg/kg | activity in the 5-HTP potentiation test ([1]; mice, oral): activity | PERCENTAGE ANALGESIA (nociceptive reactions): 16% | solubility (Solubility in water): 20 mg/mL

Clc1ccc(COCC2CNCCO2)cc1 (stereo not drawn) [Example 10, 2-[(4-Chlorobenzyloxy)methyl]morpholine hydrogen maleate]
solubility (Solubility in water): 60 mg/mL

CCOc1ccccc1COCC1CNCCO1 (stereo not drawn) [Example 11, 2-[(2-Ethoxybenzyloxy)methyl]morpholine hydrogen maleate]
ED50 [1, 2]: 15 mg/kg | activity in the 5-HTP potentiation test ([1]; mice, oral): activity | PERCENTAGE ANALGESIA (nociceptive reactions): 16% | solubility (Solubility in water): 30 mg/mL

Clc1ccc(COCC2CNCCO2)c(Cl)c1 (stereo not drawn) [Example 12, 2-[(2,4-Dichlorobenzyloxy)methyl]morpholine hydrogen maleate]
solubility (Solubility in water): 40 mg/mL

Clc1ccc(COCC2CNCCO2)cc1Cl (stereo not drawn) [Example 13, 2-[(3,4-Dichlorobenzyloxy)methyl]morpholine hydrogen maleate]
solubility (Solubility in water): 10 mg/mL

Clc1cccc(Cl)c1COCC1CNCCO1 (stereo not drawn) [Example 14, 2-[(2,6-Dichlorobenzyloxy)methyl]morpholine hydrogen maleate]
ED50 [1, 2]: 18 mg/kg | PERCENTAGE ANALGESIA (nociceptive reactions): 23% | solubility (Solubility in water): 50 mg/mL

Fc1cccc(Cl)c1COCC1CNCCO1 (stereo not drawn) [Example 15, 2-[(2-Fluoro-6-chlorobenzyloxy)methyl]morpholine hydrogen maleate]
solubility (Solubility in water): 30 mg/mL

c1ccc2c(c1)OCC(COCC1CNCCO1)O2 (stereo not drawn) [Example 17, 2-{[(1,4-Benzodioxan-2-yl)methoxy]methyl}morpholine hydrogen maleate]
solubility (Solubility in water): 100 mg/mL

CC(OCC1CNCCO1)c1ccccc1 (stereo not drawn) [Example 37, 2-[(1-Phenylethyloxy)methylmorpholine hydrogen oxalate]
solubility (Solubility in water): 50 mg/mL

O=C(O)C(=O)O.Oc1ccc(COCC2CNCCO2)cc1 (stereo not drawn) [Example 42, 2-[(4-Hydroxybenzyloxy)methyl]morpholine hydrogen oxalate]
solubility (physchem): 200 mg/mL

c1ccc(COc2ccc(COCC3CNCCO3)cc2)cc1 (stereo not drawn) [Example 42b, 2-[4-Benzyloxybenzyloxy)methyl]morpholine hydrogen oxalate]
solubility (Solubility in water): 10 mg/mL

Oc1cccc(COCC2CNCCO2)c1 (stereo not drawn) [Example 43, 2-[(3-Hydroxybenzyloxy)methyl]morpholine hydrogen oxalate]
solubility (Solubility in water): 100 mg/mL

Nc1ccc(COCC2CNCCO2)cc1 (stereo not drawn) [Example 44, 2-[(4-Aminobenzyloxy)methyl]morpholine dihydrogen succinate]
solubility (Solubility in water): 60 mg/mL

Nc1cccc(COCC2CNCCO2)c1.O=C(O)CCC(=O)O (stereo not drawn) [Example 45, 2-[(3-Aminobenzyloxy)methyl]morpholine dihydrogen succinate]
solubility (physchem): 120 mg/mL

c1ccc2nc(N3CCNCC3)ccc2c1 [Quipazine, reference compound]
ED50 ([1]; po): 15 mg/kg

— patent US4605654A, “2-(arylalkyloxymethyl)morpholines and the central nervous system compositions” (P. F. Medicament, priority 1984, dated 1986)
